Test results as given in a melting point compilation (Tetko et al.; mined from patent text by program, amines drawn as free bases though some values may be those of a salt).

Row | SMILES | melting point
1 | O=C(O)c1ccc(-c2csc(-c3ccncc3)n2)cc1 | > 300 °C
2 | CCCCn1nc(C(F)F)nc1Cc1ccc(-c2ccccc2-c2nnn[nH]2)nc1 | 172 to 174 °C
3 | CC(C)(C)c1cccc(S(=O)(=O)n2c(Cc3ccc(-c4n[nH]c(=O)o4)cc3)cc3cc(C(F)(F)F)ccc32)c1 | 92 °C
4 | NCCNS(=O)(=O)c1cc(NC(=O)c2cnn3c(C(F)F)cc(-c4ccc(C(F)(F)F)cc4)nc23)c(Cl)s1 | 150 °C
5 | COc1cc(C(F)(F)F)cc(Cl)c1Oc1ccc2ccc(O)cc2c1 | 130 °C
6 | COc1cc(C2CCN(C(=O)CN(C)C)CC2)ccc1Nc1ncc2ccc(-c3ccccc3OC)n2n1 | 78 to 87 °C
7 | CCOC(=O)C=Cc1ccc(C=Cc2csc3ccccc23)s1 | 99 to 100 °C
8 | CCOc1csc2ccc(C(=O)c3cnoc3C3CC3)c(SC)c12 | 166 to 168 °C
9 | O=C(O)c1ccc(OCCNC(=O)C2Cc3ccccc3N2S(=O)(=O)c2ccc(-c3ccc(F)cc3Cl)cc2)cc1F (configuration not stated) | 98 to 102 °C
10 | N#CCCOc1ccc(Oc2ccccc2)cc1 | 81 to 83 °C
11 | CC(C)(O)c1cnn2c(-c3ccc(F)c(-c4ccccc4C#N)c3)cnc2n1 | 187 °C
12 | CC1=NC(=S)N=C1CCCCNC(=O)c1ccccc1 | 180 to 184 °C
13 | CCCCCCCCON1C(C)(C)CC(OC(=O)COc2ccc(-c3nc(-c4ccc(C)cc4C)nc(-c4ccc(C)cc4C)n3)c(O)c2)CC1(C)C | 86 to 90 °C
14 | COc1ccc(-c2csc(NC(=O)C(=O)OCC(C)c3ccccc3)n2)cc1 (configuration not stated) | 150 to 152 °C
15 | CCCCSc1ccc(C=O)cc1[N+](=O)[O-] | 93 °C
16 | C=CCOC(=O)c1c(C)nc2c(c1N)c1ccccc1n2C | 94 °C
17 | COc1ccc2[nH]c(=O)c(=O)n(C)c2c1 | 310 °C
18 | C/C=C/c1cc(OC)c2c(c1)[C@@H](C)[C@H](c1cc(CO)c(O)c(OC)c1)O2 (relative stereo) | 117 to 119 °C
19 | O=c1c(Cl)nsnc1Oc1cccnc1 | 134 to 136 °C
20 | Cc1nc2c(OCc3cccs3)cccn2c1CC#N | 155 to 157 °C
21 | CC(C)c1nc(Cc2ccccc2)c2c(c1O)COC2 | 232 to 233 °C
22 | CCCCCCCCCCCCCCC(C)(C(=O)O)C(=O)O | 83 to 85 °C
23 | COc1ccc(C2=C(c3ccccc3)CCCc3cc(O)ccc32)cc1 | 232 to 233 °C

Row | SMILES | melting point
24 | CCCc1c(OC(C(=O)OCC)c2ccc(Cl)c(Cl)c2)ccc(C(C)=O)c1O (configuration not stated) | 77 to 79 °C
25 | Nc1nc2cc3nc(NC(=O)CCl)sc3cc2s1 | 300 °C
26 | O=C(Nc1cccc(-c2ccnc3c(C(=O)c4cccs4)cnn23)c1)c1ccccn1 | 198 to 200 °C
27 | CC(C)(C)c1cc(C=C(C#N)C#N)cc(Cl)c1O | 173 °C
28 | CCCNc1nc(=O)n(C2CC(N=[N+]=[N-])C(CO)O2)cc1C (configuration not stated) | 59 to 62 °C
29 | CCCCc1nc2cnc3cccnc3c2n1CCNC(=O)OC(C)(C)C | 198 to 199 °C
30 | Cc1nc(C(C)C)c(Sc2cccc(Cl)c2)[nH]1 | 91 to 94 °C
31 | C#CCOc1cc2c(=O)cc(C(=O)OCC)n(CC#C)c2ccc1=O | 169 °C
32 | O=C(O)Cc1cc(C(=O)c2ccccc2F)ccc1O | 102 °C
33 | CC1(C)CC(N2C(=O)C=CC2=O)CC(C)(C)N1 | 104 to 111 °C
34 | Cc1oc(-c2ccco2)nc1COc1cccc(COc2nn(Cc3ccccc3)cc2C=O)c1 | 135 to 136 °C
35 | Cn1cc(C2=C(c3cn(CCCNS(=O)(=O)c4ccccc4)c4ccccc34)C(=O)NC2=O)c2ccccc21 | 125 to 128 °C
36 | CNCCCn1c2ccc(O)cc2c2c3c(c(-c4ccccc4)cc21)C(=O)NC3=O | 265 to 268 °C
37 | COc1ccc2[nH]c3c(c2c1)CCN1CN(C)CCC31 (configuration not stated) | 199 to 200 °C
38 | CCNC=C(C(=O)C=Cc1cccnc1)C(=O)OC | 78 to 80 °C
39 | Fc1ccc(-c2ncn(C3CCNCC3)c2-c2ccnc(Oc3ccc(OCc4ccccc4)cc3)n2)cc1 | 178 to 179 °C
40 | OCc1ccc2c(Cl)cccc2c1 | 72 to 75 °C
41 | O=C1C(c2cc(OCc3ccccc3)ccc2O)c2ccccc2N1Cc1ccc(Cl)s1 (configuration not stated) | 173 to 175 °C
42 | CCc1nn(-c2c(Cl)cc(Cl)cc2Cl)c(N)c1C(N)=O | 186 to 188 °C
43 | O=C(Cn1c(-c2ccc(Br)cc2)nc2cccnc21)Nc1ccccn1 | 192 to 195 °C
44 | CC(O)c1nsc2nc3ccccc3n12 (configuration not stated) | 174 to 175 °C
45 | O=C(NCCCOCCCNC(=O)c1ccc(OC(F)(F)F)cc1)c1ccc(OC(F)(F)F)cc1 | 118 to 120 °C

The next lines start with the values.

Row | melting point | SMILES
46 | 168 to 170 °C | CCOCc1nc2c(N)nc3cccnc3c2n1CCCCCC(=O)N1CCOCC1
47 | 115 to 130 °C | CCN(CC)P(N)(=O)N(c1ccc(S(=O)(=O)c2ccccc2)cc1)c1ccc(S(=O)(=O)c2ccccc2)cc1 (configuration not stated)
48 | 118 °C | COc1cc(-c2nc3ccc(OCCCCl)cc3n2Cc2ccccc2)cc(OC)c1OC
49 | 115 °C | CC#CCOc1ccc(S(=O)(=O)C2(C(=O)O)CCCN(Cc3ccc(Cl)cc3)C2)cc1 (configuration not stated)
50 | 265 to 267 °C | CCn1cc(C(=O)NC2CCCCC2)c(=O)c2cnc(N3CCCC3)nc21
51 | 286 to 290 °C | O=c1[nH]c(=O)n2c(c1-c1ccccc1)SC=CC2
52 | 113 to 114 °C | CCCCCC(C(=O)O)c1cccc(Oc2ccccc2C)c1O (configuration not stated)
53 | 223 to 225 °C | O=[N+]([O-])c1cccc(C2=NCc3n[nH]nc3-c3ccccc32)c1
54 | 150 °C | COc1ccc(-c2nc(CCCCCC(C#N)C(=O)O)oc2-c2ccc(OC)cc2)cc1 (configuration not stated)
55 | 176 to 177 °C | CC(c1ccc(S(C)(=O)=O)cn1)C(O)(Cn1cncn1)c1ccc(F)cc1F (configuration not stated)
56 | 85 to 87 °C | CCOCn1c(-c2sc(Cl)c(Cl)c2Cl)c(C#N)c(Br)c1C(F)(F)F
57 | 212 to 215 °C | Cc1ccc(-c2cc(Br)c3[nH]c(=O)ccc3c2)c(C)n1
58 | 179 °C | FC(F)(F)c1cc(-c2nnn[nH]2)cc(C(F)(F)F)c1
59 | 144 to 145 °C | C#CCCCc1c2c(nn1CCC)c(N)nc1ccccc12
60 | 139 to 141 °C | O=C(O)C1CSC(c2ccc(OCCO[N+](=O)[O-])cc2)N1 (configuration not stated)
61 | 250 to 251 °C | CS(=O)(=O)N(c1ccc(C#Cc2cnn3c(C(F)(F)F)cc(-c4ccc(C(F)(F)F)cc4)nc23)cn1)S(C)(=O)=O
62 | 142 to 144 °C | C=CCn1c(=O)c2ccccc2n2c(CCCl)nnc12
63 | 145 to 146 °C | COC(=O)c1cc(-c2nc(COc3ccc(CO)cc3OC)c(C)o2)ccc1C
64 | 65 to 66 °C | CN(Cc1ccc([N+](=O)[O-])cc1)C(CO)CO
65 | 228 to 232 °C | O=C(O)C(c1ccccc1)N1C(=O)c2cc(Cl)c(Cl)cc2C1=O (configuration not stated)
66 | 179 °C | COc1ccc2c(c1)C(c1ccccc1Cl)C(=O)N2 (configuration not stated)
67 | 130 °C | CCCCc1nc(Cl)c(CC(=O)OCC)c(Cc2ccc(C(=O)O)cc2)n1
68 | 214 to 217 °C | Cc1cnn(-c2ncc(C(=O)N3Cc4cccn4Cc4ccccc43)c(C(F)(F)F)n2)c1
69 | 196 to 197 °C | O=C(O)C1CCc2c(n(C(=O)c3ccccc3)c3ccc(Cl)cc23)C1 (configuration not stated)
70 | 123 to 125 °C | CN(C)CCN/C(=C1/Sc2ccccc2C1=O)c1ccccc1
71 | 95 to 99 °C | O=Cc1cccn1C(=O)c1ccccc1[N+](=O)[O-]

Row | melting point | SMILES
72 | 275 to 278 °C | Cc1cc(-c2nncc3c(C(C)(C)C)c(O)nn23)no1
73 | 147 to 148 °C | N#CCCCN1CCN(c2nc3nccc(-c4ccncc4)n3n2)CC1
74 | 148 to 149 °C | COCC(=O)NNC(=O)c1cc2cccc(N(C)S(=O)(=O)c3cccs3)c2[nH]1
75 | 126 to 129 °C | Cc1cccc(-c2[nH]c(CC(C)C)nc2-c2cccc(-c3ccc(C(=O)NC4CCOCC4)cc3)c2)n1
76 | 96.5 to 97.5 °C | CCC(C(=O)OC1CC(=O)NC1=O)c1ccccc1 (configuration not stated)
77 | 176 to 177 °C | CNS(=O)(=O)c1ccc(C2=C(c3cccc(F)c3)C(=O)C(C)(C)O2)cc1
78 | 158 to 159 °C | Cc1nc(-c2ccc(F)cc2)c(-c2ccc(S(C)(=O)=O)cc2)o1
79 | 213 to 215 °C | CC(=O)c1ccc(NCc2c(O)ccc3c2CCCO3)cc1
80 | 85 to 87 °C | CCN1CCCC1CNC(=O)c1cc(N(C)S(=O)(=O)CC)ccc1OC (configuration not stated)
81 | 165 to 166 °C | Cc1ccc(C(NCC(=O)Nc2c(C(C)C)cccc2C(C)C)c2ccccc2)cc1 (configuration not stated)
82 | 260 to 262 °C | COCCCn1c2ccc(O)cc2c2c3c(c(-c4ccccc4Cl)cc21)C(=O)NC3=O
83 | 141 to 142 °C | N#CCCn1ccc(NC(N)=NCC(F)(F)F)n1
84 | 110 to 111 °C | O=C(O)CCc1cn(Cc2ccc(OCc3ccoc3)cc2)cc1-c1ccccc1
85 | 145 to 147 °C | CNC(=S)C1=CC(CF)(CF)Oc2ccc(C(F)(F)F)cc21
86 | 135 to 136 °C | CCc1nc2c(n1C(CC)CC)C(=O)N(C)C(C)N2c1ccc(Cl)cc1Cl (configuration not stated)
87 | 233 to 238 °C | CS(=O)(=O)c1ccc2nc(N)[nH]c2c1
88 | 128 to 130 °C | CCOc1nc2c(cnn2CC)nc1C(=O)O
89 | 257 to 259 °C | O=C(Nc1ccc(C(=O)N2Cc3ccccc3Cc3ccccc32)cc1)c1c(Cl)cccc1Cl
90 | 136 to 138 °C | CCCc1nn(-c2ccc(C(F)(F)F)cn2)cc1CCCOc1c(CC(=O)O)cnn1C
91 | 164 to 170 °C | CCN1CCc2ccc(Nc3ncc(C#N)c(Nc4ccccc4C(=O)NC)n3)cc2CC1
92 | 117 to 119 °C | COc1ccc(C(=O)Cc2ccccc2)cc1OC1CCCC1
93 | 152 to 154 °C | Cc1cc(-n2nc(C(F)(F)F)cc2-c2ccc(S(C)(=O)=O)cc2)ccc1Cl
94 | > 250 °C | COc1cc2ncc(C#N)c(Nc3ccc4[nH]ccc4c3)c2cc1OC
95 | 169 to 173 °C | c1ccc2c(c1)nc(N1CCOCC1)c1c(-c3noc(C4CC4)n3)ncn12
96 | 207 °C | C#CCNC(=O)c1nn(-c2c(Cl)cc(C(F)(F)F)cc2Cl)c(N)c1S(=O)C(F)(F)F (configuration not stated)
97 | 36 to 38 °C | CCCCOC1CCC(=O)N1 (configuration not stated)
